The source of these data is ChEMBL document CHEMBL1201862, “PubChem BioAssay data set” (2004).

Molecules are shown by their SMILES.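 Compound exposure: 48 hours, 5 concentrations, 96-well plates. GI50 marks 50% less growth.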 Activity calls are given as the source filed them. Cut-off read from the data, not from the text of the source: active = GI50 up to about 1.1 µM and inactive = higher.

Holding throughout (assay): inhibition of tumour cell growth, NCI panel, 48 h
Experiment [1] concerns HT-29.
Experiment [2] concerns PC-3.
Experiment [3] concerns HL-60.
In experiment [4] the test system is SF-295.
For experiment [5], the system named is HCT-15.
Experiment [6] deals with NCI-H23.
Experiment [7] deals with COLO 205.
Experiment [8] deals with T47D.
In experiment [9] the test system is BT-549.
The subject of experiment [10] is NCI-H460.
Experiment [11] concerns 786-0.
Experiment [12] deals with SR.
The test system of experiment [13] is SK-OV-3.
Experiment [14] has as its system IGROV-1.
Experiment [15] concerns HCC 2998.
Experiment [16] has as its system HOP-62.
The subject of experiment [17] is A498.
For experiment [18], the system named is U-251.
In experiment [19] the test system is RPMI-8226.
In experiment [20] the test system is UO-31.

As to `Cn1c2cc(Cl)ccc2c2ccc3c(c21)C(=O)C=CC3=O`, the GI50 in experiment [1] is 31.4 µM (inactive); in [2] it was 25.8 µM (inactive); in experiment [3], 13.5 µM (inactive); in experiment [4], > 100 µM (inactive); in [5] it was 22.4 µM; in experiment [6] it was 20 µM (inactive). Moreover, the GI50 in experiment [7] is 13.8 µM (inactive); in experiment [8], 14.1 µM (inactive); in experiment [9], 25.6 µM (inactive); in [10], > 100 µM (inactive); in [11], 18.8 µM (inactive); in experiment [12], 6.07 µM (inactive). The GI50 in experiment [13] was > 100 µM (inactive); in experiment [14], 28.4 µM (inactive); in experiment [15] it was > 100 µM (inactive); in [16] it was > 100 µM (inactive); in experiment [17] it was 68.7 µM (inactive); in experiment [18], 45.9 µM (inactive). Moreover, the GI50 in experiment [19] is 5.57 µM (inactive); in experiment [20], 45.7 µM (inactive).

As to `CCOC(=O)c1c(N2CCN(C)CC2)[nH]c(=O)c(C(c2c(Cl)cccc2Cl)c2c(O)c(C(=O)OCC)c(N3CCN(C)CC3)[nH]c2=O)c1O`, the GI50 in [1] was 19.8 µM (inactive); in [2], 22.5 µM (inactive); in [3], 19.5 µM (inactive); in experiment [4], 28.1 µM (inactive); in experiment [5] it was 30.7 µM; in experiment [6], 40.3 µM (inactive). For the same molecule, the GI50 in [7] is 33.1 µM (inactive); in experiment [8] it was 16.5 µM (inactive); in experiment [9], 20.6 µM (inactive); in experiment [10], 28.1 µM (inactive); in experiment [11], 27.7 µM (inactive); in experiment [12], 21.9 µM (inactive). Moreover, the GI50 in experiment [14] is 20.7 µM (inactive); in [15], 36.8 µM (inactive); in experiment [16], 30.3 µM (inactive); in experiment [17], 22.1 µM (inactive); in experiment [18], 23.1 µM (inactive); in [19], 39.2 µM (inactive). The GI50 in [20] is 21.5 µM (inactive).

For the molecule `Cc1ccc(C(CCO)CCO)nc1`, the GI50 in [1] was > 100 µM (inactive); in experiment [2], > 100 µM (inactive); in [3], > 100 µM (inactive); in [4], > 100 µM (inactive); in experiment [5] it was above 100 µM; in [6], > 100 µM (inactive). Moreover, the GI50 in [7], in [8], in [9], in [10], in experiment [11] and in [12] was > 100 µM (inactive) throughout. In addition, the GI50 in experiment [13], in experiment [15], in experiment [16], in experiment [17], in [18] and in experiment [19] was > 100 µM (inactive) each time. The GI50 in [20] was > 100 µM (inactive).

On to `N=c1oc2c(Cl)cc(Cl)cc2cc1C(=O)Nc1ccccn1`, for which the GI50 is 91.2 µM (inactive) in experiment [1]; 52 µM (inactive) in experiment [2]; > 100 µM (inactive) in experiment [3]; 54.7 µM (inactive) in experiment [4]; 34.8 µM in experiment [5]; 41.4 µM (inactive) in experiment [6]. The GI50 was > 100 µM (inactive) in [7]; 74.8 µM (inactive) in [8]; 41.4 µM (inactive) in [9]; 48.3 µM (inactive) in experiment [10]; 27.5 µM (inactive) in [11]; 23.1 µM (inactive) in [12]. Also, the GI50 in [13] was 67.5 µM (inactive); in [15] it was 81.5 µM (inactive); in experiment [16], 16.4 µM (inactive); in [17], 40.1 µM (inactive); in [18], 37.2 µM (inactive); in experiment [19] it was 22.3 µM (inactive). For the same molecule, the GI50 in experiment [20] is 59 µM (inactive).

With `CC(=O)OC[C@@]12C[C@H]3C(=O)C(C)(C)C[C@H]3[C@]1(C)[C@@H](OC(C)=O)[C@]1(O)[C@H]([C@@H](OC(=O)c3ccccc3)[C@@H](C)[C@H]1OC(C)=O)[C@H]2OC(C)=O`, the GI50 in [2] was > 20 µM (inactive); in experiment [3], 4.92 µM (inactive); in experiment [4] it was 15.3 µM (inactive); in experiment [5], above 20 µM; in [6] it was > 20 µM (inactive); in experiment [7] it was 8.71 µM (inactive). The GI50 is > 20 µM (inactive) in experiment [8]; > 20 µM (inactive) in experiment [9]; 6.19 µM (inactive) in experiment [10]; > 20 µM (inactive) in experiment [11]; > 20 µM (inactive) in [12]; > 20 µM (inactive) in experiment [13]. Besides, the GI50 in experiment [14], in experiment [15], in experiment [16], in [17], in [18] and in [20] was > 20 µM (inactive) in each case.

In the case of `Cc1nc(C(N)=S)sc1C(=O)CC(=O)C(=O)Nc1cccc(Cl)c1C`, the GI50 was > 100 µM (inactive) in experiment [1]; > 100 µM (inactive) in [2]; > 100 µM (inactive) in [3]; > 100 µM (inactive) in experiment [4]; above 100 µM in experiment [5]; > 100 µM (inactive) in experiment [6]. Moreover, the GI50 in experiment [8], in experiment [9], in [10], in experiment [11], in experiment [12] and in experiment [13] was > 100 µM (inactive) in each case. For the same molecule, the GI50 in experiment [14], in experiment [15], in experiment [16], in experiment [17], in experiment [18] and in experiment [19] was > 100 µM (inactive) each time. Moreover, the GI50 in [20] is > 100 µM (inactive).

As to `COc1cc(C2S/C(=C/c3ccccc3)C(=O)N2Cc2ccccc2)cc(OC)c1OC` (stereo not drawn), the GI50 is 53.5 µM (inactive) in experiment [1]; 28.2 µM (inactive) in [2]; 21.2 µM (inactive) in [3]; 28.5 µM (inactive) in experiment [4]; 40.1 µM in experiment [5]; 67.3 µM (inactive) in [6]. The GI50 in experiment [7] is 30.1 µM (inactive); in [8] it was 5.07 µM (inactive); in [9] it was 54.5 µM (inactive); in [11] it was 41.1 µM (inactive); in experiment [12] it was 20 µM (inactive); in experiment [13], 42.1 µM (inactive). Besides, the GI50 is 42.2 µM (inactive) in experiment [14]; 21 µM (inactive) in experiment [15]; 26.2 µM (inactive) in experiment [16]; 45.5 µM (inactive) in experiment [17]; 32.7 µM (inactive) in [18]; 21.5 µM (inactive) in experiment [19]. For the same molecule, in experiment [20], the GI50 was 24.4 µM (inactive).
